Measurements: patent US5470737A, “Stably-transformed cells expressing human thiopurine methyltransferase” (priority 1994, dated 1995)
“Also recorded” adds a separate entry of the source.

Experiments:
[1] = target: T1, TPMT expressed in COS-1 cells transfected with T84 TPMT cDNA (Homo sapiens, UniProt P51580); assay: Panel of methyltransferase inhibitors and ions, COS-1 cells transfected with T84 TPMT cDNA; type: biochemical
T1 construct: digested with SstI to excise the coding region, the 5'-untranslated region and a portion (ca. 600 nucleotides) of the 3'-untranslated region; expressed in transfected cells; host or cells: COS-1 (simian), vector P91023(B)
T1 sequence (P51580 1-245): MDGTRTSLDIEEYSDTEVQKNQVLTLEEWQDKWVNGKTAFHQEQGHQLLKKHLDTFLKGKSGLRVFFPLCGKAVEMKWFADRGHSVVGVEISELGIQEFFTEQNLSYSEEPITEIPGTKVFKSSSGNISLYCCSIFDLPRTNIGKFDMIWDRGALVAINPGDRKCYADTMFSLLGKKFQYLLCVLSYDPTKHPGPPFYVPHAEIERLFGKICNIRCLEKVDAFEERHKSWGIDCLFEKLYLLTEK
Experimental: (§1) TPMT activity in renal tissue was measured by the method of R. M. Weinshilboum et al., in Clin. Chim. Acta, 85, 323 (1978) as modified by L. C. Woodson et al., Biochem. Pharmacol., 32, 819 (1983) to assay the enzyme in human kidney preparations. […] Assay conditions for the measurement of TPMT in T84 human colon carcinoma cells and in COS-1 cells were identical with those used to measure the enzyme activity in human renal tissue. One unit of TPMT activity represented the formation of 1 nmol of 6-MMP per hr of incubation at 37° C.
Simian COS-1 cells were then plated in 100-mm dishes at a density of 1.5-1.8×10^6 cells/dish in DMEM with 10% fetal calf serum, and were allowed to grow overnight. Three dishes of cells were used for each transfection. Purified "sense" plasmid vector (0.5 μg) was mixed with DEAE-dextran and DMEM, and the mixture was added to the cell culture dishes, following the procedures of J. H. McCutchan et al., J. Natl. Cancer Inst., 41, 351 (1988) and R. J. Kaufman et al., Mol. Cell. Biol., 9, 946 (1989). Control cells were treated with no DNA, with expression vector alone, or with constructs that contained the cDNA clone in an antisense orientation. After 1 hr, the DNA-DEAE-dextran solution was replaced for 2 min with DMEM that contained 10% dimethylsulfoxide, followed by incubation for 2 hr in 0.1 mM chloroquine in DMEM following the procedure of H. Luthman et al., Nucl. Acids Res., 11, 1295 (1983). Cells were then grown for 40-42 hr in DMEM with 10% fetal calf serum. The cells from each transfection were harvested and pooled, cell pellets were washed in 5 ml of PBS, and the cell pellets were homogenized for 30 sec in 2 ml of 5 mM potassium phosphate buffer, pH 7.5. Homogenates were centrifuged at 15,000×g for 15 min at 4° C., supernatants from that step were centrifuged at 100,000×g for 1 hr at 4° C., and 0.25 μl aliquots of 100,000×g supernatant preparations were then assayed for transient expression of TPMT enzymatic activity.

TPMT [2] = target: T2, TPMT (Homo sapiens, UniProt P51580); assay: Inhibition of TPMT, all sources of enzyme (summary in words); type: biochemical
T2 construct: T84 cDNA transiently expressed in COS-1 cells, plus native human kidney 100,000×g supernatant, partially purified kidney Peak I and T84 cell enzyme
T2 sequence (P51580 1-245): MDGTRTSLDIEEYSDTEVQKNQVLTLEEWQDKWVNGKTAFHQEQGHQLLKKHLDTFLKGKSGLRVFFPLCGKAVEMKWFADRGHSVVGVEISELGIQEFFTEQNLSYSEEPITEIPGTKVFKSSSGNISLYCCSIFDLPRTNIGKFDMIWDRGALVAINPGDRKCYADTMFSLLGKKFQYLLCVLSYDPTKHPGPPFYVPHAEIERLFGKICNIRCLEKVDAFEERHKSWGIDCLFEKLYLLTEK
Excerpt: (§2) Finally, the response of the TPMT expressed in COS-1 cells to a panel of methyltransferase inhibitors and ions was compared with that of TPMT activity in human kidney 100,000×g supernatant, partially purified human kidney Peak I TPMT and T84 cell TPMT (Table 3).
As shown by the data in Table 3, the results were nearly identical for all sources of enzyme and each activity was inhibited by the TPMT reaction products, Ado-Hcy and 6-MMP. However, the enzyme was not affected by inhibitors of other methyltransferase enzymes.

[3] = target: T3, TPMT, human kidney 100,000×g supernatant (Homo sapiens, UniProt P51580); assay: Panel of methyltransferase inhibitors and ions, human kidney 100,000×g supernatant; type: biochemical
T3 construct: renal tissue was homogenized in 5 mM potassium phosphate buffer, pH 7.5, with a Polytron homogenizer, and a 100,000×g supernatant was prepared; from tissue; host or cells: human kidney (renal tissue)
T3 sequence (P51580 1-245): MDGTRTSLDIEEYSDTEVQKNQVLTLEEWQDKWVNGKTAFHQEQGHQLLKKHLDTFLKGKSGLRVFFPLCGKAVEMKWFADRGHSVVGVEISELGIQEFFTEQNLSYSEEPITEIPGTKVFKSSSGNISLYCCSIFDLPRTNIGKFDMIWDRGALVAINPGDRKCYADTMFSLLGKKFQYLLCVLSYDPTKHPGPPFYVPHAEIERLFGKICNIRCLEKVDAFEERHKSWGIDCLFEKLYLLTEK
Experimental: Renal tissue was obtained either during autopsy or from patients undergoing clinically indicated nephrectomies. Hepatic tissue was obtained from patients who underwent clinically indicated partial hepatectomies for the removal of primary or metastatic hepatic tumors. All tissue was obtained under guidelines approved by the Mayo Clinic Institutional Review Board. Macroscopically normal tissue was stored at -80° C., conditions under which TPMT activity is stable (C. L. Szumlanski et al., Pharmacogenetics, 2, 148 (1992); J. A. Van Loon et al., Drug Met. Disposit., 18, 632 (1990)). Prior to enzyme purification, renal tissue was homogenized in 5 mM potassium phosphate buffer, pH 7.5, with a Polytron homogenizer, and a 100,000×g supernatant was prepared as described by L. C. Woodson et al., Biochem. Pharmacol., 32, 819 (1983). Amino acid sequence information was obtained with TPMT purified from human renal tissue--a tissue with a high specific activity for the enzyme.
(§3) TPMT activity in renal tissue was measured by the method of R. M. Weinshilboum et al., in Clin. Chim. Acta, 85, 323 (1978) as modified by L. C. Woodson et al., Biochem. Pharmacol., 32, 819 (1983) to assay the enzyme in human kidney preparations. […] Ado-Met as the methyl donor. Assay conditions for the measurement of TPMT in T84 human colon carcinoma cells and in COS-1 cells were identical with those used to measure the enzyme activity in human renal tissue. One unit of TPMT activity represented the formation of 1 nmol of 6-MMP per hr of incubation at 37° C.
as §2

[4] = test system: catechol O-methyltransferase (COMT); settings: cited from earlier work
human kidney TPMT Peak I = target: T4, human kidney TPMT Peak I (Homo sapiens, UniProt P51580); assay: Panel of methyltransferase inhibitors and ions, human kidney Peak I TPMT; type: biochemical
T4 construct: Human renal tissue contains two isoforms of TPMT, Peak I and Peak II, that can be separated by DEAE ion exchange chromatography; from tissue; host or cells: human kidney, DEAE Peak I, gel filtration
T4 sequence (P51580 1-245): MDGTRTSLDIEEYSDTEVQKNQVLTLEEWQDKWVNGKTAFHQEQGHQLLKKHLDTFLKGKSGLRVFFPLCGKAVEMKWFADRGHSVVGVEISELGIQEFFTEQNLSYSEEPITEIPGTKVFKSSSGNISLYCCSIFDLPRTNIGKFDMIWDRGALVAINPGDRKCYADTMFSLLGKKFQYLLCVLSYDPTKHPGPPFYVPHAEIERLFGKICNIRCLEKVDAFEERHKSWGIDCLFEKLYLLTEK
Excerpt: Human renal tissue contains two isoforms of TPMT, Peak I and Peak II, that can be separated by DEAE ion exchange chromatography as reported by J. A. Van Loon et al., Biochem. Genet., 20, 637 (1982). The two isoforms were separated by DEAE ion exchange chromatography, and the Peak I enzyme was then purified by gel filtration chromatography performed with Sephadex G-100 superfine as described by J. A. Van Loon et al., cited above. In some experiments, hydroxylapatite chromatography performed as described by J. A. Van Loon et al., in Biochem. Pharmacol., 44, 775 (1992) was added as a third purification step.
as §3, §2

T84 cell TPMT [5] = target: T5, T84 cell TPMT (Homo sapiens, UniProt P51580); assay: Panel of methyltransferase inhibitors and ions, T84 cell 100,000×g supernatant; type: biochemical
T5 construct: Cytosol from T84 cells did contain TPMT enzymatic activity; host or cells: T84 human colon carcinoma cells
T5 sequence (P51580 1-245): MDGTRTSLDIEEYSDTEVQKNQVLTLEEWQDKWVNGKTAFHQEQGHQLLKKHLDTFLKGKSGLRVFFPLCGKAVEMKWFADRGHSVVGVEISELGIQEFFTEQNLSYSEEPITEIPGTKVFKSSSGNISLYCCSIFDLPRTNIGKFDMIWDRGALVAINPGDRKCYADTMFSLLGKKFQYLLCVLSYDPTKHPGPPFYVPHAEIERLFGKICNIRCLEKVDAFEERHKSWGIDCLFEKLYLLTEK
Experimental: as §3
T84 human colon carcinoma cells (American Type Culture Collection, Rockville, Md.) were grown to confluence in an equal volume mixture of Dulbecco's modified Eagle's medium (DMEM) and Ham's F12 media with 5% fetal calf serum. The cells were then harvested, cell pellets were washed in phosphate buffered saline (PBS), and the pellets were homogenized for 30 sec in 1 ml of 5 mM potassium phosphate buffer, pH 7.5, with a Polytron homogenizer. Homogenates of the cells were centrifuged at 100,000×g for 1 hr at 4° C., and the supernatant was used to assay TPMT activity and to determine selected biochemical properties of the enzyme.
as §2

[6] = test system: thiol methyltransferase (TMT); settings: cited from earlier work
[7] = test system: patients with genetically low or undetectable RBC TPMT activity; settings: patients lacking or with low TPMT activity; cited from earlier work
TPMT [8] = settings: cited from earlier work
human kidney TPMT = target: T6, human kidney TPMT (Homo sapiens, UniProt P51580); settings: cited from earlier work
T6 construct: to assay the enzyme in human kidney preparations; host or cells: human kidney
T6 sequence (P51580 1-245): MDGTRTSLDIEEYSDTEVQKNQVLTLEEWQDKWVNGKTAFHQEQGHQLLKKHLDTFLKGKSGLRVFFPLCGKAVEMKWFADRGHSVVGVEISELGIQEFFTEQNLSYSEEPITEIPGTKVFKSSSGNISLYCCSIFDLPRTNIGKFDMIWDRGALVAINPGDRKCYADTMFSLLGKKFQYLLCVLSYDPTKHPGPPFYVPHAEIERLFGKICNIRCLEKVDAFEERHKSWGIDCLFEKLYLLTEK

T84 cell TPMT [9] = target: T5, T84 cell TPMT; assay: TPMT biochemical characteristics: pH optimum and apparent Km, T84 cells; settings: 150 mM potassium phosphate buffer, seven pH values 5.5 to 8.5
Experimental: as §1

[10] = tissue stored at -80° C.; cited from earlier work
[11] = substrate: Sc1ncnc2nc[nH]c12; assay: purified protein, by the assay type; settings: other: T84 cells; 25 μM Ado-Met, 6-MP 0.11 to 6.8 mM; 37.0 °C
[12] = substrate: C[S+](CC[C@H](N)C(=O)O)C[C@H]1O[C@@H](n2cnc3c(N)ncnc32)[C@H](O)[C@@H]1O; assay: purified protein, by the assay type; settings: other: T84 cells; 3.4 mM 6-MP, Ado-Met 0.78 to 25 μM; 37.0 °C
[13] = read-out: Activity Remaining, %

[Ca+2].[Cl-].[Cl-] [CaCl2]
Activity Remaining, % ([1]; COS-1 cells transfected with T84 TPMT cDNA, 1 mM): 96% | effect on TPMT activity (in words) (TPMT [2]): not affected | Activity Remaining, % ([3]; human kidney 100,000×g supernatant, 1 mM): 96% | inhibition of catechol O-methyltransferase (in words) [4]: an inhibitor of catechol O-methyltransferase | Activity Remaining, % (human kidney TPMT Peak I; human kidney TPMT Peak I, 1 mM): 97% | Activity Remaining, % (T84 cell TPMT [5]; T84 cell 100,000×g supernatant, 1 mM): 95%

CC(N)c1cccc(Cl)c1Cl (stereo not drawn) [DCMB, 2,3-dichloro-α-methylbenzylamine]
remaining activity at 1000 µM [1, 13]: 95% | effect on TPMT activity (in words) (TPMT [2]): not affected | remaining activity at 1000 µM [3, 13]: 95% | remaining activity at 1000 µM (human kidney TPMT Peak I; [13]): 95% | remaining activity at 1000 µM (T84 cell TPMT [5]; [13]): 99% | inhibition of thiol methyltransferase (in words) [6]: inhibitors of thiol methyltransferase

CCCC(C(=O)OCCN(CC)CC)(c1ccccc1)c1ccccc1 [SKF-525A]
remaining activity at 500 µM ([1]; COS-1 cells transfected with T84 TPMT cDNA, 0.5 mM): 101% | effect on TPMT activity (in words) (TPMT [2]): not affected | remaining activity at 500 µM ([3]; human kidney 100,000×g supernatant, 0.5 mM): 107% | remaining activity at 500 µM (human kidney TPMT Peak I; human kidney TPMT Peak I, 0.5 mM): 98% | remaining activity at 500 µM (T84 cell TPMT [5]; T84 cell 100,000×g supernatant, 0.5 mM): 102% | inhibition of thiol methyltransferase (in words) [6]: inhibitors of thiol methyltransferase

Cn1cnc([N+](=O)[O-])c1Sc1ncnc2nc[nH]c12 [azathioprine]
risk of myelosuppression (in words) [7]: even more at risk for the occurrence of severe myelosuppression; also recorded: greatly increased risk for the development of life-threatening thiopurine-induced myelosuppression | substrate for TPMT (in words) (TPMT [8]): substrates for TPMT

B1: T84 cell TPMT (Homo sapiens) (protein)
chain: MDGTRTSLDIEEYSDTEVQKNQVLTLEEWQDKWVNGKTAFHQEQGHQLLKKHLDTFLKGKSGLRVFFPLCGKAVEMKWFADRGHSVVGVEISELGIQEFFTEQNLSYSEEPITEIPGTKVFKSSSGNISLYCCSIFDLPRTNIGKFDMIWDRGALVAINPGDRKCYADTMFSLLGKKFQYLLCVLSYDPTKHPGPPFYVPHAEIERLFGKICNIRCLEKVDAFEERHKSWGIDCLFEKLYLLTEK
pH Optimum (human kidney TPMT): 6.5 | pH Optimum (T84 cell TPMT [9]): 6.5 | stability of TPMT activity (in words) [10]: stable | Km [11]: 710 µM | Km [12]: 5.1 µM
